A short description of data set [1]: Intravenous and oral pharmacokinetics in Wistar rats. Type of data set: in vivo. The conditions noted are these: for plasma exposure (AUC, C max) as compared to Rivaroxaban: Wistar rats, IV 1 mg/kg and PO 10 mg/kg. The procedure: On the day before administration of the substance, a catheter for obtaining blood is implanted in the jugular vein of the experimental animals (male Wistar rats, body weight 200-250 g) under Isofluran® anesthesia.
Blood samples (8-12 time points) are taken through the catheter sequentially over the course of 24 h after administration of the substance. The administration volume is 10 ml/kg for oral and 1 ml/kg for IV in male Wistar rats. Intravenous administration is via a formulation of 2% N—N Dimethyl acetamide/ethanol 10%/PEG400 (30%)/water for IV injection (58%) and via Tween80/PEG400/sterile water in the case of oral administration. Removal of blood is after 0.08, 0.25, 0.5, 1, 2, 3, 4, 6, 8 and 12 hours in the case of IV and, blood withdrawn after 0.25, 0.5, 1.0, 2, 3, 4, 6, 8 and 12 hours for oral administration.
Plasma is obtained by centrifuging the samples in heparinized tubes. IS containing Acetonitrile is added to a defined plasma volume per time point to precipitate proteins. After centrifugation, compound formula (B) and, where appropriate, known cleavage products of the compound formula (B) in the supernatant are determined quantitatively using a suitable LC/MS-MS method.
The measured plasma concentrations are used to calculate pharmacokinetic parameters of the test substance and of the active ingredient compound (A) liberated there from, such as AUC, Cmax, T½ (half-life) and CL (clearance).
Acetonitrile containing IS is added to the study samples, calibration samples and QCs, and the protein is precipitated using acetonitrile. Vortexed and centrifuged at 4000 rpm and the supernatant is injected by LC-MS/MS (API 4000, AB Sciex). Chromatographic separation is carried out on an Shimadzu UFLC. The injection volume is 10 μl. The separation column used is a Phenomenex Gemini NX 4.6×5μ. 100 mm, adjusted to a temperature of 30° C. […]
The plasma concentration/time plots determined are used to calculate the pharmacokinetic parameters such as AUC, Cmax, MRT (mean residence time), t½ (half life) and CL (clearance) employing the validated pharmacokinetic calculation programs.

Data set [2] concerns plasma protein. Nature of the data set: Plasma protein binding (rat). The data set is classed as in vitro ADME. As to the method: A compound solution (1 mM in DMSO) (5 μL), according to the invention is added to the respective plasma matrices of rat or human or mouse (1 ml).
Add 150 ul of phosphate buffer to receiving side of the dialysis well. […] Precipitate with Acetonitrile and dilute samples prior to analysis in 1.5 ml polypropylene tubes. Remove 50 μl from the sample side of dialysis well and add 50 μl of phosphate buffer +300 μl of acetonitrile containing IS. Remove 50 μl from the buffer side of the dialysis well and add 50 μl of respective matrix plasma +300 μl of ACN. Then vortexed and centrifuged for 5 min, and supernatant is taken and injected into LCMS.
Different test concentration ranging from 0.1 μM to 20 μM are made in methanol:water (90:10). Test solutions are added to the premixed matrix containing plasma:phosphate buffer (50:50). Precipitate with 300 μl of ice cold acetonitrile containing IS, vortexes and centrifuged. Supernatant is taken and injected into LCMS. Percentage of plasma protein binding was obtained via Equation(2):% Fraction unbound=(concentration on the buffer side/concentration on the sample side)*100 Table-7

The nature of data set [3]: Anticoagulant activity (PT, APTT) in human plasma. The conditions noted are these: PT and APTT, 0.1 to 1.0 μg/mL. As to the method: The anticoagulant action of the test substance (compound formula-B) and rivaroxaban was determined in vitro using human plasma. The human plasma used for this experiment was separated from the blood collected in sodium citrate as anticoagulant. The prothrombin time (PT) was determined by using a commercial test kit (Neoplastin from Stagid) and APTT was determined using (Synthasil kit by IL). […] Coagulation was then started by addition of thromboplastin, and time when coagulation occurred was determined. The concentration of test substance which effected a doubling of prothrombin time was determined.

Data set [4] can be described thus: In vitro liver microsomal stability assay (mouse). The data set is classed as in vitro ADME. The conditions noted are these: mouse liver microsomes. The procedure:
Liver microsomal stability assays are conducted at 1 mg per mL liver microsome protein with an NADPH in phosphate buffer (100 mM, pH 7.4). Test compounds (compound of formula B of the invention) are prepared as solutions in 20% methanol-water and added to the assay mixture (final assay concentration 1 μM) and incubated at 37° C. Aliquots (100.μ·L) are taken out at times 0, 15, and 30 minutes, and diluted with ice cold acetonitrile containing IS (200.mu·L) to stop the reactions. Samples are centrifuged at 10,000 RPM for 5 minutes to precipitate proteins. Supernatants are transferred to micro centrifuge tubes and stored at −20° C. for analysis of LC/MS/MS. The percent parent remaining of the test substance is calculated as Ratio of peak area at each time point to peak area ratio at zero min, multiplied by 100. The compound formula (B) is converted to Rivaroxaban in microsomal assay.
On the technique in general: Liver microsomes are vesicles of endoplasmic reticulum, rich in cytochrome P450 enzymes.

As for `O=CN(C[C@H]1CN(c2ccc(N3CCOCC3=O)cc2)C(=O)O1)C(=O)c1ccc(Cl)s1` [Compound formula B, 5-chloro-N-formyl-N-({(5S)-2-oxo-3-[4-(3-oxomorpholin-4-yl)phenyl]-1,3-oxazolidin-5-yl}methyl)thiophene-2-carboxamide], the “plasma exposure (AUC, C max) as compared to Rivaroxaban” value in data set [1] is reported as “increased exposure”. Also, the “plasma exposure (AUC, C max) as compared to Rivaroxaban” value in data set [1] (listed as Test product) is given as “higher”. The “detectability of test substance in plasma” value in data set [1] (after i.v. administration, at the first measurement point) is recorded as “no longer detectable in plasma”. In data set [2], the “Observation: amount of test product” value is reported as “Not quantificable amount” and the “Observation: formed Rivaroxaban bound to plasma protein” value is “found to be moderate-High”. In data set [3], the anticoagulant activity entry is recorded as “significant anticoagulant activity”. Besides, in data set [4], the “Observation (metabolism; for Test Product: of the formed rivaroxaban)” value was “shown metabolism”. Besides, the “amount of test product detected” value in data set [4] (metabolised to rivaroxaban from zero min) is reported as “min. Neglible”.

The values above are taken from patent US9359341B2, “Aldehyde derivative of substitute oxazolidinones” (WANBURY LTD., priority 2012, dated 2016).
